Data as given in US5079261A, “Use of lipoxin A4 and its derivatives as antagonists for slow-reacting substances of anaphylaxis” (Brigham and Women's Hospital, priority 1989, dated 1992).

Columns and labels:
[1] = Renal function in vivo in anesthetized rats (AP, Hct, RPF, GFR) during intrarenal arterial infusion; parameters: species or system male Munich-Wistar rats; conditions: for AP / GFR / Hct / RPF: LXA4 20-min infusion, n=3
Source text: Statistical: ANOVA with Bonferroni modification for multiple pre-planned comparisons was used, within each group and between groups, to compare the changes in various whole kidney and microcirculatory indices which occurred from one period to another. In phosphoinositide generation studies, increases in [^3 H]-IP3 CPMs in agonist-treated cells were compared to vehicle-treated controls using upaired students t-test. Differences were considered significant at a p value ≤0.05. All values are reported as means ± SEM.
Inulin and para-aminohippurate (PAH) clearances Were used to measure GFR and effective RPF. A needle was placed at the take-off of the left renal artery through which a maintenance infusion of 0.9% NaCl at a rate of 0.05 ml/min was initiated. […] Two experimental groups
Group I (n=14). First period: Clearances were performed during vehicle infusion.
Group II (n=12). First period: Clearances were performed during vehicle infusion.

hamster cheek pouch = conditions: topical; cited from earlier work
LTD4 receptor = assay: Inhibition of LTD4-induced IP3 formation in mesangial cells; type: cell-based, rat
Description: Mesangial Cell Culture: Rat mesangial cells were isolated and cultured as described previously (Harris, R. C., et al., J. Clin. Invest. 82:1028-1039(1988). Briefly, kidneys were exicesed from two young Sprague-Dawly rats under sterile conditions, and the cortices removed, minced, and washed several times in Hank's Balanced Salt Solution, containing 10 mM HEPES pH 7.4, amphotericin (0.25 μg/ml), and gentamicin (50 μg/ml). The tissue was then passed through consecutive sterilized stainless mesh filters with pore sizes of 212 μm, 150 μm, and then onto the final mesh of 75 μm. The isolated glomeruli were harvested from the surface of the 75 μm. The isolated glomeruli were harvested from the surface of the 75 μm filter and washed twisce with the Hank's Media. The glomeruli were suspended in RPMI 1640 Medium with 15% Fetal Bovine Serum (Givco), penicillin (100 μ/ml) and streptomycin (100 μg/ml) (Gibco), plated into 100 mm cell culture petri dishes, and incubated at 37° C. in a humidified atmosphere of 95% air and […] 5% CO2. Mesangial cell colonies were subcultured in 60 mm culture dishes, and experiments were carried out in cells from passages 2 to 12. The criteria used to establish the identify of mesangial cells were as described previously (Harris, R. C., et al., J. Clin. Invest. 82:1028-1039 (1988)). Cells were routinely grown in RPMI-1640, supplemented with 20% fetal calf serum, penicillin 100 μ/ml, and streptomycin 100 μg/ml. […] All eicosanoids were stored under argon at -70° C. in methanol and their purity and quantity verified periodically by ultraviolet scanning and high pressure liquid chromatography (Serhan, C. N. et al., J. Biol. Chem. 261:16340 (1986)).
To label mesangial cells with [^3 H]-Inositol, cells grown to confluence in 60 mm culture dishes (10^6 cells/dish) were cultured in RPMI, supplemented with 10% dialyzed fetal calf serum and [^3 H]-inositol (1 μCi/ml) in a total incubation volume of 5 ml.
Reactions were terminated by the addition of cold 10% trichloroacetic acid (TCA), the supernatants subjected to ether extraction, and the aqueous phase titrated to neutral pH using 0.1 M Tris base. [^3 H]-IP1, [^3 H]-IP2, and [^3 H]-IP3 in the aqueous phase were separated and quantitated by anion exchange column chromatography, using the method of Berridge et al. (Berridge, M. J., Biochem. J. 220:345-360 (1984)). To ensure the reliability of the separation technique, the same methods for extraction and separation were applied to known amounts of [^3 H]-IP1, [^3 H]IP2, and [^3 H]-IP3 standards (New England Nuclear) mixed in a ratio of 3:2:1, respectively, and subjected to separation by HPLC. The latter was performed using established methodology described previously (Cunha-Melo, J. R., et al., J. Biol. Chem. 262:11455-11463 (1987)).

neutrophils = conditions: cited from earlier work
[2] = biological target: T1, mesangial cell LTD4 receptor (Rattus norvegicus, UniProt Q924T8); assay: biochemical
T1 sequence (Q924T8 1-339): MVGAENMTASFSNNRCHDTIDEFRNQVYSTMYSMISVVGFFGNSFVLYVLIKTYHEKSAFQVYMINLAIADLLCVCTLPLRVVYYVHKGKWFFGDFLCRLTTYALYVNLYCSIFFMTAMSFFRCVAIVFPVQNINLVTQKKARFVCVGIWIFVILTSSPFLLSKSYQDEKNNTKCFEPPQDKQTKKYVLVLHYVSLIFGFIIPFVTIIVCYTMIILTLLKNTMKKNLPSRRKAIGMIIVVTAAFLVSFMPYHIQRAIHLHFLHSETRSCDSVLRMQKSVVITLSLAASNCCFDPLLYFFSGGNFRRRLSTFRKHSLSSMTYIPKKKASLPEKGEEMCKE
Description: (§1) Mesangial Cell Culture: Rat mesangial cells were isolated and cultured as described previously (Harris, R. C., et al., J. Clin. Invest. 82:1028-1039(1988). Briefly, kidneys were exicesed from two young Sprague-Dawly rats under sterile conditions, and the cortices removed, minced, and washed several times in Hank's Balanced Salt Solution, containing 10 mM HEPES pH 7.4, amphotericin (0.25 μg/ml), and gentamicin (50 μg/ml). The tissue was then passed through consecutive sterilized stainless mesh filters with pore sizes of 212 μm, 150 μm, and then onto the final mesh of 75 μm. The isolated glomeruli were harvested from the surface of the 75 μm. The isolated glomeruli were harvested from the surface of the 75 μm filter and washed twisce with the Hank's Media. The glomeruli were suspended in RPMI 1640 Medium with 15% Fetal Bovine Serum (Givco), penicillin (100 μ/ml) and streptomycin (100 μg/ml) (Gibco), plated into 100 mm cell culture petri dishes, and incubated at 37° C. in a humidified atmosphere of 95% air and 5% air and 5% CO2. Mesangial cell colonies were subcultured in 60 mm culture dishes, and experiments were carried out in cells from passages 2 to 12. […] Cells were routinely grown in RPMI-1640, supplemented with 20% fetal calf serum, penicillin 100 μ/ml, and streptomycin 100 μg/ml.
(§2) Binding studies were routinely performed at 4° C. […] The cells were then dissolved with 1.0 ml of 1.0 N NaOH, neutralized with HCl, dissolved in 10 ml of Aquasol (New England Nuclear, Boston, MA), and the bound radioactivity was determined using a scintillation counter (Beckman Instruments). […] Cell density was determined by counting cells from replicate wells, using a Coulter Counter ZBi (Coulter Electronics, Inc., Hialeah, Fla.).

[3] = biological target: T1, mesangial cell LTD4 receptor; conditions: 10 nM [3H]-LTD4
Description: as §1, §2

[4] = test system: guinea pig ileum or trachea; conditions: cited from earlier work
guinea pig lung = conditions: cited from earlier work
vascular smooth muscle = conditions: cited from earlier work
[5] = Group II, third period, LTD4 in the presence of LXA4
[6] = LTD4 14.0 μg/kg/min + LXA4, p<0.05 vs baseline
[7] = LTD4 20.0 μg/kg/min + LXA4, p<0.05 vs baseline

Compound: CCCCC[C@H](O)/C=C/C=C\C=C\C=C\[C@@H](O)[C@@H](O)CCCC(=O)O [LXA4, (5S,6R,15S)-5,6,15-trihydroxy-7,9,13-trans-11-cis-eicosatetraenoic acid]
- GFR and RPF change (in words) ([1]; Group II, LXA4 infusion, period 2): moderate increases
- AP ([1]; Group II, period 2, subgroup A): 121 ± 4 mmHg
- GFR ([1]; Group II, period 2, subgroup A): 1.20 ± 0.20 mL/min
- Hct ([1]; Group II, period 2, subgroup A): 43.7 ± 0.9 Vol./dl
- RPF ([1]; Group II, period 2, subgroup A): 4.50 ± 0.08 mL/min
- AP ([1]; Group II, period 2, subgroup B): 120 ± 0 mmHg
- GFR ([1]; Group II, period 2, subgroup B): 0.98 ± 0.06 mL/min
- Hct ([1]; Group II, period 2, subgroup B): 44.7 ± 1.2 Vol./dl
- RPF ([1]; Group II, period 2, subgroup B): 4.76 ± 0.83 mL/min
- AP ([1]; Group II, period 2, subgroup C): 127 ± 2 mmHg
- GFR ([1]; Group II, period 2, subgroup C): 1.30 ± 0.10 mL/min
- Hct ([1]; Group II, period 2, subgroup C): 45.2 ± 0.7 Vol./dl
- RPF ([1]; Group II, period 2, subgroup C): 4.87 ± 0.10 mL/min
- AP ([1]; Group II, period 2, subgroup D): 108 ± 3 mmHg
- GFR ([1]; Group II, period 2, subgroup D): 1.27 ± 0.04 mL/min
- Hct ([1]; Group II, period 2, subgroup D): 44.5 ± 0.3 Vol./dl
- RPF ([1]; Group II, period 2, subgroup D): 4.58 ± 0.20 mL/min
- Effect on LTD4-induced falls in RPF [1, 5]: without effect
- Effect on LTD4-provoked reduction in GFR [1, 5]: marked blunting
- Mean percent fall in GFR during LTD4 in the presence of LXA4 ([1]; LTD4 0.5 μg/kg/min + LXA4): 9%
- Mean percent fall in RPF during LTD4 in the presence of LXA4 ([1]; LTD4 0.5 μg/kg/min + LXA4, p<0.05 vs baseline): 20%
- Mean percent fall in GFR during LTD4 in the presence of LXA4 ([1]; LTD4 7.0 μg/kg/min + LXA4): 11%
- Mean percent fall in RPF during LTD4 in the presence of LXA4 ([1]; LTD4 7.0 μg/kg/min + LXA4, p<0.05 vs baseline): 37%
- Mean percent fall in GFR during LTD4 in the presence of LXA4 [1, 6]: 42%
- Mean percent fall in RPF during LTD4 in the presence of LXA4 [1, 6]: 51%
- Mean percent fall in GFR during LTD4 in the presence of LXA4 [1, 7]: 50%
- Mean percent fall in RPF during LTD4 in the presence of LXA4 [1, 7]: 68%
- Arteriolar dilation (hamster cheek pouch): pronounced arteriolar dilation
- Venular diameters (hamster cheek pouch): does not change venular diameters
- Inhibition of LTD4-induced IP3 generation (LTD4 receptor; pre-incubation with 100 nM LXA4 for 10 min, then 10 nM LTD4 (n=3)): completely prevented
- Inhibition of LTD4-induced stimulation of IP3 formation (FIG. 2) (LTD4 receptor; preexposure to 100 nM LXA4 for 10 minutes): abrogation
- Neutrophil superoxide generation, elastase release and leukocyte chemotaxis (neutrophils): induce neutrophils to generate superoxide radicals, release elastase, and promote chemotaxis by leukocytes
- IC50 [2]: 100 nM
- Competition for [3H]-LTD4 binding compared with LTB4 [3]: several-fold greater than that of the non-peptidoleukotriene, LTB4
- Competition for [3H]-LTD4 binding compared with LTE4 [3]: equipotent to that of LTE4
- Contraction of ileum or trachea [4]: not guinea pig ileum or trachea
- Contraction of pulmonary smooth muscle (guinea pig lung): contract pulmonary smooth muscle
- Concentration that relaxes (dilates) vascular smooth muscle (vascular smooth muscle): less than 1 μM
